Source: PubChem BioAssay (NCI)
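Assay format: 96-well plates, 48-hour exposure. GI50 = concentration required for 50% inhibition of growth. TGI: concentration producing complete growth inhibition.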

What was measured:
Assay in all cases: DTP human tumour cell line panel, 48 h
[1] = tested on: A498 renal
[2] = tested on: SF-268 CNS
[3] = tested on: U251 CNS
[4] = tested on: HL-60(TB) leukemia
[5] = tested on: OVCAR-3 ovarian
[6] = tested on: OVCAR-5 ovarian
[7] = tested on: LOX IMVI melanoma
[8] = tested on: M14 melanoma
[9] = tested on: HOP-92 NSCLC
[10] = tested on: NCI-H522 lung

SMILES	GI50 [1] [µM]	TGI [1] [µM]	GI50 [2] [µM]	TGI [2] [µM]	GI50 [3] [µM]	TGI [3] [µM]	GI50 [4] [µM]	TGI [4] [µM]	GI50 [5] [µM]	TGI [5] [µM]	GI50 [6] [µM]	TGI [6] [µM]	GI50 [7] [µM]	TGI [7] [µM]	GI50 [8] [µM]	TGI [8] [µM]	GI50 [9] [µM]	TGI [9] [µM]	GI50 [10] [µM]	TGI [10] [µM]
Clc1ccc(/C=C/c2ccc3ccccc3n2)cc1	0.306	> 100	0.641	> 88.3	0.441	> 100	0.268	0.828	0.917	6.73	4.36	> 100	2.51	> 100	0.298	1.01	2.82	> 29.9	0.255	0.763
C=C1C(=O)O[C@H]2[C@H]1CC/C(Cn1cc(-c3ccc(N)cc3)nn1)=C\CC[C@@]1(C)O[C@@H]21	10.4	26.1	3.7	16.3	4.16	16.5	2.23	6.43	1.62	3.99	6.43	22.9	1.51	2.88	2.97	10.8	2.13	5.33	1.37	3.07
C=C1C(=O)O[C@H]2[C@H]1CC/C(COC(=O)NCc1ccc(Cn3c(=O)sn(CCCCC)c3=O)cc1)=C\CC[C@@]1(C)O[C@@H]21	2.91	10.1	1.88	3.97	2.2	4.93	1.1	4.12	1.41	2.75	2.01	4.91	1.59	2.96	1.89	4.76	1.38	3.01	1.59	3.1
Cn1cc(-c2cc(-c3cn(C)c4ccc(Cl)cc34)[nH]n2)c2cc(Cl)ccc21	2.44	9.79	5.29	44.4	3.37	12.9	4.45	18.1	4.41	40.6	3.11	13	1.7	3.8	2.15	5.3	1.86	4.74	1.75	3.84
FC(F)(F)c1ccc(-c2nn3ncccc3c2-c2ccnc(Nc3ccc4c(c3)OCCO4)n2)cc1	4.68	> 25	> 21.3	> 25	14.1	> 25	7.16	> 21.8	11.6	> 25	7.11	> 23.2	5.16	15.3	8.92	> 25	2.02	21.9	8.79	> 25
CC(NC(=O)Cc1ccc(C(F)(F)P(=O)(OCc2ccc([N+](=O)[O-])o2)N(C)CCCCCl)cc1)c1ccc(OCC2CCCCC2)c(C(N)=O)c1 (stereo not given)	1.17	24	4.8	15.5	3.33	10.9	1.89	4.72	2.31	9.82	15.6	33.1	2.06	5.87	0.398	1.99	16.5	37.2	3.86	10.2
CCCCCCCCCc1ccc(OCCOCCOCCOCCOCCOCCOCCOCCOCCO)cc1	0.665	3.8	0.685	3.37	0.458	1.25	0.31	1.37	0.428	2.29	1.1	3.54	0.23	0.996	0.892	2.13	0.792	3.07	0.302	1.39
Cc1cc(CCl)c(C)cc1CCl	1.79	3.96	1.02	6.08	1.47	4.27	2.98	13.2	1.76	4.04	2.94	8.62	0.883	3.79	3.54	30.5	2.52	9.55	1.7	3.57
COc1cc(C2=NN(C(C)=O)C(c3cc(OC)c(OC)c(OC)c3)C2)ccc1O (stereo not given)	0.26	7.52	0.539	> 100	0.42	> 100	0.182	0.514	0.289	5.21	6.74	> 100	0.618	> 100	0.342	> 100	67	> 100	0.273	> 35.4
O=C1CCC2(c3ccccc3)Nc3ccccc3N12 (stereo not given)	–	> 100	–	> 100	–	> 100	–	> 100	–	> 100	–	> 100	–	> 100	–	> 100	–	> 100	–	> 100
CCn1cc(/C=C2\Oc3cc(OCC#N)ccc3C2=O)c2cc(OC)ccc21	10.3	> 100	1.48	> 55.6	0.425	> 48.7	0.0872	0.903	0.127	4.94	1.41	> 100	0.238	> 100	0.119	> 100	11.2	68.6	2.46	28.5
Cc1ccc(S(=O)(=O)c2nc(-c3ccccc3)oc2S(C)(=O)=O)cc1	15.4	28.7	10.6	24.4	5.88	18.3	2	6.43	1.86	3.35	2.12	5.28	1.59	2.99	1.74	3.63	1.84	3.48	1.52	3.3
CC1=Nc2ccccc2SC(c2c(Cl)cccc2Cl)C1 (stereo not given)	–	3.74	–	2.73	–	1.14	–	1.12	–	0.885	–	4.08	–	1.04	–	3.07	–	3.62	–	2.23
